Test results published in patent US20070049564A1 (Wyeth, priority 2005, published 2007).
≈ marks a conversion by molar mass, not a printed value. Like-named read-outs stand apart in the source and are kept apart here.

What was measured:
E. faecalis GC 2265 = test: MIC, broth microdilution; settings: Enterococcus faecalis, GC2265, E. faecalis GC 2265
E. coli GC 4560 = test: MIC, broth microdilution; settings: Escherichia coli, GC4560, E. coli GC 4560
E. coli GC 6465 = test: MIC, broth microdilution; settings: Escherichia coli, GC6465, E. coli GC 6465
E. faecium GC 2243 = test: MIC, broth microdilution; settings: Enterococcus faecium, GC2243, E. faecium GC 2243
E. faecalis GC 4555 = test: MIC, broth microdilution; settings: Enterococcus faecalis, GC4555, E. faecalis GC 4555
S. agalactiae GC 4564 = test: MIC, broth microdilution; settings: Streptococcus agalactiae, GC4564, S. agalactiae GC 4564
S. aureus GC 6467 = test: MIC, broth microdilution; settings: Staphylococcus aureus, GC6467, S. aureus GC 6467
E. coli GC 2203 = test: MIC, broth microdilution; settings: Escherichia coli, GC2203, E. coli GC 2203
S. aureus GC 4536 = test: MIC, broth microdilution; settings: Staphylococcus aureus, GC4536, S. aureus GC 4536
E. coli GC 2272 = test: MIC, broth microdilution; settings: Escherichia coli, GC2272, E. coli GC 2272
E. coli GC 2231 = test: MIC, broth microdilution; settings: Escherichia coli, GC2231, E. coli GC 2231
Staph. = test: Range of MIC for Staph. strains, including MRSA; settings: Staphylococcus aureus, MRSA
E. coli GC 2232 = test: MIC, broth microdilution; settings: Escherichia coli, GC2232, E. coli GC 2232
S. typhimurium GC 2172 = test: MIC, broth microdilution; settings: Salmonella enterica, TYPHIMURIUM, S. typhimurium GC 2172
S. aureus GC 6469 = test: MIC, broth microdilution; settings: Staphylococcus aureus, GC6469, S. aureus GC 6469
S. pneumoniae* GC 4465 = test: MIC, broth microdilution; settings: Streptococcus pneumoniae, S. pneumoniae* GC 4465
S. aureus GC 6466 = test: MIC, broth microdilution; settings: Staphylococcus aureus, GC6466, S. aureus GC 6466
E. faecalis GC 2267 = test: MIC, broth microdilution; settings: Enterococcus faecalis, GC2267, E. faecalis GC 2267
E. coli GC 3226 = test: MIC, broth microdilution; settings: Escherichia coli, GC3226, E. coli GC 3226
E. coli = test: Range of MIC for E. coli strains; settings: Escherichia coli
[1] = read-out: Range of MIC, Staph (Mouse Serum)
[2] = read-out: Range of MIC, Staph (Water)
[3] = 20 h, read-out: Range of MIC, E. coli (Mouse Serum)
[4] = read-out: Range of MIC, E. coli (Water)

CCCCN(CC(=O)Nc1cc(N(C)C)c2c(c1O)C(=O)C1=C(O)[C@]3(O)C(=O)C(C(N)=O)=C(O)[C@@H](N(C)C)C3CC1C2)C(=O)OCOC(=O)c1ccc(OC)cc1 (stereo partly drawn) [Example 2, ({[(2-{[(7S,10aS)-9-(aminocarbonyl)-4,7-bis(dimethylamino)-1,8,10a,11-tetrahydroxy-10,12-dioxo-5,5a,6,6a,7,10,10a,12-octahydrotetracen-2-yl]amino}-2-oxoethyl)(butyl)amino]carbonyl}oxy)methyl 4-methoxybenzoate]
MIC (E. faecalis GC 2265; Mouse Serum pre-incubation): 4 µg/mL (≈ 5.04 µM) | MIC (E. faecalis GC 2265; Water pre-incubation): 8 µg/mL (≈ 10.1 µM) | MIC (E. coli GC 4560; Mouse Serum pre-incubation): 0.25 µg/mL (≈ 0.315 µM) | MIC (E. coli GC 4560; Water pre-incubation): 4 µg/mL (≈ 5.04 µM) | MIC (E. coli GC 6465; Mouse Serum pre-incubation): 8 µg/mL (≈ 10.1 µM) | MIC (E. coli GC 6465; Water pre-incubation): 64 µg/mL (≈ 80.6 µM) | MIC (E. faecium GC 2243; Mouse Serum pre-incubation): 1 µg/mL (≈ 1.26 µM) | MIC (E. faecium GC 2243; Water pre-incubation): 4 µg/mL (≈ 5.04 µM) | MIC (E. faecalis GC 4555; Mouse Serum pre-incubation): 2 µg/mL (≈ 2.52 µM) | MIC (E. faecalis GC 4555; Water pre-incubation): 4 µg/mL (≈ 5.04 µM) | MIC (S. agalactiae GC 4564; Mouse Serum pre-incubation): 2 µg/mL (≈ 2.52 µM) | MIC (S. agalactiae GC 4564; Water pre-incubation): 2 µg/mL (≈ 2.52 µM) | MIC (S. aureus GC 6467; Mouse Serum pre-incubation): 4 µg/mL (≈ 5.04 µM) | MIC (S. aureus GC 6467; Water pre-incubation): 8 µg/mL (≈ 10.1 µM) | MIC (E. coli GC 2203; Mouse Serum pre-incubation): 2 µg/mL (≈ 2.52 µM) | MIC (E. coli GC 2203; Water pre-incubation): 64 µg/mL (≈ 80.6 µM) | MIC (S. aureus GC 4536; Mouse Serum pre-incubation): 2 µg/mL (≈ 2.52 µM) | MIC (S. aureus GC 4536; Water pre-incubation): 4 µg/mL (≈ 5.04 µM) | MIC (E. coli GC 2272; Mouse Serum pre-incubation): 1 µg/mL (≈ 1.26 µM) | MIC (E. coli GC 2272; Water pre-incubation): 64 µg/mL (≈ 80.6 µM) | MIC (E. coli GC 2231; Mouse Serum pre-incubation): 4 µg/mL (≈ 5.04 µM) | MIC (E. coli GC 2231; Water pre-incubation): 64 µg/mL (≈ 80.6 µM) | MIC (Staph.; read-out: Minimum inhibitory concentration (MIC), Staph. (mouse serum)): 1 to 8 µg/mL (≈ 1.26 to 10.1 µM) | MIC (Staph.; read-out: Minimum inhibitory concentration (MIC), Staph. (water)): 2 to 8 µg/mL (≈ 2.52 to 10.1 µM) | MIC (Staph.; [1]): 1 to 8 µg/mL (≈ 1.26 to 10.1 µM) | MIC (Staph.; [2]): 2 to 8 µg/mL (≈ 2.52 to 10.1 µM) | MIC (E. coli GC 2232; Mouse Serum pre-incubation): 2 µg/mL (≈ 2.52 µM) | MIC (E. coli GC 2232; Water pre-incubation): 64 µg/mL (≈ 80.6 µM) | MIC (S. typhimurium GC 2172; Mouse Serum pre-incubation): > 64 µg/mL | MIC (S. typhimurium GC 2172; Water pre-incubation): > 64 µg/mL | MIC (S. aureus GC 6469; Mouse Serum pre-incubation): 2 µg/mL (≈ 2.52 µM) | MIC (S. aureus GC 6469; Water pre-incubation): 4 µg/mL (≈ 5.04 µM) | MIC (S. pneumoniae* GC 4465; Mouse Serum pre-incubation): 0.5 µg/mL (≈ 0.63 µM) | MIC (S. pneumoniae* GC 4465; Water pre-incubation): 0.25 µg/mL (≈ 0.315 µM) | MIC (S. aureus GC 6466; Mouse Serum pre-incubation): 1 µg/mL (≈ 1.26 µM) | MIC (S. aureus GC 6466; Water pre-incubation): 2 µg/mL (≈ 2.52 µM) | MIC (E. faecalis GC 2267; Mouse Serum pre-incubation): 4 µg/mL (≈ 5.04 µM) | MIC (E. faecalis GC 2267; Water pre-incubation): 4 µg/mL (≈ 5.04 µM) | MIC (E. coli GC 3226; Mouse Serum pre-incubation): 4 µg/mL (≈ 5.04 µM) | MIC (E. coli GC 3226; Water pre-incubation): 64 µg/mL (≈ 80.6 µM) | MIC (E. coli; [3]): 1 to 4 µg/mL (≈ 1.26 to 5.04 µM) | MIC (E. coli; read-out: Minimum inhibitory concentration (MIC), E. coli (mouse serum)): 1 to 4 µg/mL (≈ 1.26 to 5.04 µM) | MIC (E. coli; read-out: Minimum inhibitory concentration (MIC), E. coli (water)): 32 to 64 µg/mL (≈ 40.3 to 80.6 µM) | MIC (E. coli; [4]): 32 to 64 µg/mL (≈ 40.3 to 80.6 µM)

CCCN(CC(=O)Nc1cc(N(C)C)c2c(c1O)C(=O)C1=C(O)[C@]3(O)C(=O)C(C(N)=O)=C(O)[C@@H](N(C)C)[C@@H]3C[C@@H]1C2)C(=O)OCOC(=O)C(C)(C)C [Example 9, ({[(2-{[(5aR,6aS,7S,10aS)-9-(aminocarbonyl)-4,7-bis(dimethylamino)-1,8,10a,11-tetrahydroxy-10,12-dioxo-5,5a,6,6a,7,10,10a,12-octahydrotetracen-2-yl]amino}-2-oxoethyl)(propyl)amino]carbonyl}oxy)methyl pivalate]
MIC (E. faecalis GC 2265; Mouse Serum pre-incubation): 1 µg/mL (≈ 1.37 µM) | MIC (E. faecalis GC 2265; Water pre-incubation): 2 µg/mL (≈ 2.74 µM) | MIC (E. coli GC 4560; Mouse Serum pre-incubation): 0.25 µg/mL (≈ 0.343 µM) | MIC (E. coli GC 4560; Water pre-incubation): 1 µg/mL (≈ 1.37 µM) | MIC (E. coli GC 6465; Mouse Serum pre-incubation): 4 µg/mL (≈ 5.48 µM) | MIC (E. coli GC 6465; Water pre-incubation): > 64 µg/mL | MIC (E. faecium GC 2243; Mouse Serum pre-incubation): 0.25 µg/mL (≈ 0.343 µM) | MIC (E. faecium GC 2243; Water pre-incubation): 0.5 µg/mL (≈ 0.685 µM) | MIC (E. faecalis GC 4555; Mouse Serum pre-incubation): 0.5 µg/mL (≈ 0.685 µM) | MIC (E. faecalis GC 4555; Water pre-incubation): 2 µg/mL (≈ 2.74 µM) | MIC (S. agalactiae GC 4564; Mouse Serum pre-incubation): 0.12 µg/mL (≈ 0.164 µM) | MIC (S. agalactiae GC 4564; Water pre-incubation): 0.25 µg/mL (≈ 0.343 µM) | MIC (S. aureus GC 6467; Mouse Serum pre-incubation): 1 µg/mL (≈ 1.37 µM) | MIC (S. aureus GC 6467; Water pre-incubation): 2 µg/mL (≈ 2.74 µM) | MIC (E. coli GC 2203; Mouse Serum pre-incubation): 0.5 µg/mL (≈ 0.685 µM) | MIC (E. coli GC 2203; Water pre-incubation): 4 µg/mL (≈ 5.48 µM) | MIC (S. aureus GC 4536; Mouse Serum pre-incubation): 0.5 µg/mL (≈ 0.685 µM) | MIC (S. aureus GC 4536; Water pre-incubation): 0.5 µg/mL (≈ 0.685 µM) | MIC (E. coli GC 2272; Mouse Serum pre-incubation): 0.5 µg/mL (≈ 0.685 µM) | MIC (E. coli GC 2272; Water pre-incubation): 8 µg/mL (≈ 11 µM) | MIC (E. coli GC 2231; Mouse Serum pre-incubation): 2 µg/mL (≈ 2.74 µM) | MIC (E. coli GC 2231; Water pre-incubation): 64 µg/mL (≈ 87.7 µM) | MIC (Staph.; [1]): 0.06 to 2 µg/mL (≈ 0.0822 to 2.74 µM) | MIC (Staph.; [2]): 0.12 to 2 µg/mL (≈ 0.164 to 2.74 µM) | MIC (Staph.; read-out: Range of MIC, Staph. (mouse serum)): 0.06 to 1 µg/mL (≈ 0.0822 to 1.37 µM) | MIC (Staph.; read-out: Range of MIC, Staph. (water)): 0.12 to 2 µg/mL (≈ 0.164 to 2.74 µM) | MIC (E. coli GC 2232; Mouse Serum pre-incubation): 1 µg/mL (≈ 1.37 µM) | MIC (E. coli GC 2232; Water pre-incubation): 8 µg/mL (≈ 11 µM) | MIC (S. typhimurium GC 2172; Mouse Serum pre-incubation): 8 µg/mL (≈ 11 µM) | MIC (S. typhimurium GC 2172; Water pre-incubation): > 64 µg/mL | MIC (S. aureus GC 6469; Mouse Serum pre-incubation): 1 µg/mL (≈ 1.37 µM) | MIC (S. aureus GC 6469; Water pre-incubation): 2 µg/mL (≈ 2.74 µM) | MIC (S. pneumoniae* GC 4465; Mouse Serum pre-incubation): < 0.06 µg/mL | MIC (S. pneumoniae* GC 4465; Water pre-incubation): < 0.06 µg/mL | MIC (S. aureus GC 6466; Mouse Serum pre-incubation): 0.12 µg/mL (≈ 0.164 µM) | MIC (S. aureus GC 6466; Water pre-incubation): 0.12 µg/mL (≈ 0.164 µM) | MIC (E. faecalis GC 2267; Mouse Serum pre-incubation): 1 µg/mL (≈ 1.37 µM) | MIC (E. faecalis GC 2267; Water pre-incubation): 2 µg/mL (≈ 2.74 µM) | MIC (E. coli GC 3226; Mouse Serum pre-incubation): 2 µg/mL (≈ 2.74 µM) | MIC (E. coli GC 3226; Water pre-incubation): 16 µg/mL (≈ 21.9 µM) | MIC (E. coli; [3]): 0.5 to 2 µg/mL (≈ 0.685 to 2.74 µM) | MIC (E. coli; [4]): 4 to 64 µg/mL (≈ 5.48 to 87.7 µM) | MIC (E. coli; read-out: Range of MIC, E. coli (mouse serum)): 0.5 to 2 µg/mL (≈ 0.685 to 2.74 µM) | MIC (E. coli; read-out: Range of MIC, E. coli (water)): 4 to 64 µg/mL (≈ 5.48 to 87.7 µM)
